Experiments:
[1] = molecular target: Protein kinase C alpha type (Homo sapiens, UniProt P17252); type: cell-based; settings: sf9;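 further: inhibition of PKCalpha kinase activity measured in an enzyme assay with histone as the phosphorylation substrate; in other assays of this panel Not Active means under 50% inhibition at 10 µM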
[2] = DRUGMATRIX: beta-Lactamase enzyme inhibition (substrate: Nitrocefin); parameters: species or system Bacillus cereus; settings: Not Active = under 50% inhibition at 10 µM
[3] = molecular target: Mitogen-activated protein kinase 1 (Homo sapiens, UniProt P28482); test: DRUGMATRIX: Protein Serine/Threonine Kinase, ERK2 enzyme inhibition (substrate: Myelin Basic Protein); parameters: species or system Escherichia coli; settings: Not Active = under 50% inhibition at 10 µM
[4] = molecular target: T1, Muscarinic acetylcholine receptor M4 (Homo sapiens, UniProt P08173); type: cell membranes, CHO-K1, Membrane; settings: for Ki: read-out: Ki; on all read-outs here: in other assays of this panel Not Active means under 50% inhibition at 10 µM
T1 sequence (P08173 whole entry): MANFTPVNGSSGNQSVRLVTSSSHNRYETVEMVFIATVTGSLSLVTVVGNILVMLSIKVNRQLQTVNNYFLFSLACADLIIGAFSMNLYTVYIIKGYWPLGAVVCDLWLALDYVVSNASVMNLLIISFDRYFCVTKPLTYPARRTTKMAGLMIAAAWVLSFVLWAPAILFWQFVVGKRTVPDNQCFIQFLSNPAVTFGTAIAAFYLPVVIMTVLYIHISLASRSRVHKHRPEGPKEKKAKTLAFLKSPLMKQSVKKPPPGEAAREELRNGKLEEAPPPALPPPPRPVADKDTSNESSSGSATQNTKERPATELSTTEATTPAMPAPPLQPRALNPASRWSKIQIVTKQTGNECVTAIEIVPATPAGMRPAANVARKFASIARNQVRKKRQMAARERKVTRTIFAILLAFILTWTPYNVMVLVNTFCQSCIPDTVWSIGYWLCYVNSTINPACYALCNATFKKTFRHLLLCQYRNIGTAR

Melanocortin receptor 4 = Melanocortin receptor 4 (Homo sapiens, UniProt P32245); type: cell membranes, HEK293, Membrane; further: in other assays of this panel Not Active means under 50% inhibition at 10 µM
[5] = DRUGMATRIX: Sigma2 radioligand binding (ligand: [3H] Ifenprodil); type: cell membranes, Rattus norvegicus, Wistar, Brain, Membrane; settings: Not Active = under 50% inhibition at 10 µM

Sequence of Melanocortin receptor 4 (P32245 whole entry): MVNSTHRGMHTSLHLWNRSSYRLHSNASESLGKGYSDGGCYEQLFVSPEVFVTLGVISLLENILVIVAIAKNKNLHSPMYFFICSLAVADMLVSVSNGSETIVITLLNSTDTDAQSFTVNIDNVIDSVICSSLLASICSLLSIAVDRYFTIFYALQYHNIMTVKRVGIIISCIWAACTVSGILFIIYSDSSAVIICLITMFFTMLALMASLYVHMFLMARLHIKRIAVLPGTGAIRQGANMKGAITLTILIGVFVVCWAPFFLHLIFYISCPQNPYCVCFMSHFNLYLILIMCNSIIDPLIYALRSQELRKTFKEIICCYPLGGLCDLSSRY
Sequence of Mitogen-activated protein kinase 1 (P28482 whole entry): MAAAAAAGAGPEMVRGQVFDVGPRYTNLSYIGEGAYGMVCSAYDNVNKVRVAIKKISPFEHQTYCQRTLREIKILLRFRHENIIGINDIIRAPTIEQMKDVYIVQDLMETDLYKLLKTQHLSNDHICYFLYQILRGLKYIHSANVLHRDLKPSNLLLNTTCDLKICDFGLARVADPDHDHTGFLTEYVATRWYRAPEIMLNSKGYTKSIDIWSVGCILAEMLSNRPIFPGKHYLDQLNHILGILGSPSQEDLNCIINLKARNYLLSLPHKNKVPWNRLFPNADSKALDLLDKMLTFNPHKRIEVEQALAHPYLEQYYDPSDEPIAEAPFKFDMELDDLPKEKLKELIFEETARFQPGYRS

| SMILES | IC50 [1] | IC50 [2] | Ki [2] | IC50 [3] | IC50 ([4]; cho-k1) | IC50 (Melanocortin receptor 4; read-out: IC50) | Ki (Melanocortin receptor 4; read-out: Ki) | IC50 [5] | Ki [5] | IC50 (Melanocortin receptor 4; hek293) | IC50 ([5]; read-out: IC50) | Ki ([5]; read-out: Ki) | IC50 ([4]; read-out: IC50) | Ki [4] |
| --- | --- | --- | --- | --- | --- | --- | --- | --- | --- | --- | --- | --- | --- | --- |
| Cc1c(C)c2c(c(C)c1O)CCC(C)(CN1CCN(c3cc(N4CCCC4)nc(N4CCCC4)n3)CC1)O2 (stereo unspecified) | Not Active | Not Active | Not Active | Not Active | Not Active | 58000 nM | 55800 nM | Not Active | Not Active | – | – | – | – | – |
| COc1ccc(CCN(C)CCCC(C#N)(c2ccc(OC)c(OC)c2)C(C)C)cc1OC (stereo unspecified) | Not Active | Not Active | Not Active | Not Active | Not Active | – | – | – | – | Not Active | 2820 nM | 1740 nM | – | – |
| CC(C)Cc1ccc([C@@H](C)C(=O)O)cc1 [(R)-IBUPROPHEN] | Not Active | Not Active | Not Active | Not Active | Not Active | – | – | Not Active | Not Active | Not Active | – | – | – | – |
| CN(C)CCOC(c1ccccc1)c1ccccc1 [DIPHENHYDRAMINE] | Not Active | – | – | Not Active | – | – | – | – | – | Not Active | – | – | – | – |
| Clc1ccc(COC(Cn2ccnc2)c2ccc(Cl)cc2Cl)cc1 (stereo unspecified) [ECONAZOLE] | Not Active | – | – | Not Active | – | – | – | – | – | Not Active | – | – | 2120 nM | 296 nM |
| CCN(CC)CCOc1ccc(/C(=C(/Cl)c2ccccc2)c2ccccc2)cc1 [ENCLOMIPHENE] | Not Active | – | – | Not Active | – | – | – | – | – | Not Active | – | – | 1650 nM | 230 nM |
| Fc1ccc(C(c2ccc(F)cc2)N2CCN(C/C=C/c3ccccc3)CC2)cc1 [FLUNARIZINE] | Not Active | – | – | Not Active | – | – | – | – | – | Not Active | – | – | 5660 nM | 789 nM |
| CNCCC(Oc1ccc(C(F)(F)F)cc1)c1ccccc1 (stereo unspecified) [FLUOXETINE] | Not Active | – | – | Not Active | Not Active | – | – | – | – | Not Active | – | – | – | – |
| Cc1ccc(NC(=O)c2ccc(CN3CCN(C)CC3)cc2)cc1Nc1nccc(-c2cccnc2)n1 [IMATINIB] | Not Active | – | – | – | Not Active | – | – | – | – | Not Active | – | – | – | – |
| CC(C)Oc1ccc2c(=O)c(-c3ccccc3)coc2c1 [IPRIFLAVONE] | Not Active | Not Active | Not Active | Not Active | Not Active | – | – | Not Active | Not Active | Not Active | – | – | – | – |
| CC(C)NCC(O)c1ccc(O)c(O)c1 (stereo unspecified) [ISOPROTERENOL] | Not Active | Not Active | Not Active | Not Active | Not Active | – | – | Not Active | Not Active | Not Active | – | – | – | – |
| CNC1(c2ccccc2Cl)CCCCC1=O (stereo unspecified) [KETAMINE] | Not Active | Not Active | Not Active | Not Active | Not Active | – | – | Not Active | Not Active | Not Active | – | – | – | – |
| N#Cc1ccc(C(c2ccc(C#N)cc2)n2cncn2)cc1 [LETROZOLE] | Not Active | Not Active | Not Active | Not Active | Not Active | – | – | Not Active | Not Active | Not Active | – | – | – | – |
| CCN1CCC[C@H]1CNC(=O)c1cc(S(N)(=O)=O)ccc1OC [LEVOSULPIRIDE] | Not Active | Not Active | Not Active | Not Active | Not Active | – | – | Not Active | Not Active | Not Active | – | – | – | – |
| CCN(CC)CC(=O)Nc1c(C)cccc1C [LIDOCAINE] | Not Active | Not Active | Not Active | Not Active | Not Active | – | – | Not Active | Not Active | Not Active | – | – | – | – |
| O=C1Nc2ccc(Cl)cc2C(c2ccccc2Cl)=NC1O (stereo unspecified) [LORAZEPAM] | Not Active | Not Active | Not Active | Not Active | Not Active | – | – | Not Active | Not Active | Not Active | – | – | – | – |

| SMILES | IC50 [1] | IC50 [2] | Ki [2] | IC50 [3] | IC50 ([4]; cho-k1) | IC50 (Melanocortin receptor 4; read-out: IC50) | Ki (Melanocortin receptor 4; read-out: Ki) | IC50 [5] | Ki [5] | IC50 (Melanocortin receptor 4; hek293) | IC50 ([5]; read-out: IC50) | Ki ([5]; read-out: Ki) | IC50 ([4]; read-out: IC50) | Ki [4] |
| --- | --- | --- | --- | --- | --- | --- | --- | --- | --- | --- | --- | --- | --- | --- |
| CO[C@@H]1[C@@H](OC)[C@H](C)[C@@](O)(CC(=O)O)O[C@H]1[C@H](C)[C@H]1O[C@@]2(CC[C@@](C)([C@H]3CC[C@@](C)([C@@H]4O[C@@H]([C@H]5O[C@](C)(O)[C@H](C)C[C@@H]5C)C[C@@H]4O[C@@H]4C[C@H](OC)[C@@H](OC)[C@H](C)O4)O3)O2)C[C@H](O)[C@H]1C [MADURAMICIN ACID] | Not Active | Not Active | Not Active | Not Active | Not Active | – | – | Not Active | Not Active | Not Active | – | – | – | – |
| COc1c2occc2cc2ccc(=O)oc12 [METHOXSALEN] | Not Active | Not Active | Not Active | Not Active | Not Active | – | – | Not Active | Not Active | Not Active | – | – | – | – |
| C[C@H]1C[C@@H]2[C@H]([C@@H](O)C[C@@]3(C)[C@H]2CC[C@]3(O)C(=O)CO)[C@@]2(C)C=CC(=O)C=C12 [METHYLPREDNISOLONE] | Not Active | Not Active | Not Active | Not Active | Not Active | – | – | Not Active | Not Active | Not Active | – | – | – | – |
| Cc1cccc(C)c1OCC(C)N (stereo unspecified) [MEXILETINE] | Not Active | Not Active | Not Active | Not Active | Not Active | – | – | Not Active | Not Active | Not Active | – | – | – | – |
| Nc1cc(N2CCCCC2)nc(N)[n+]1[O-] [MINOXIDIL] | Not Active | Not Active | Not Active | Not Active | Not Active | – | – | Not Active | Not Active | Not Active | – | – | – | – |
| CO[C@H]1/C=C/O[C@@]2(C)Oc3c(C)c(O)c4c(O)c(c(/C=N/N5CCN(C6CCCC6)CC5)c(O)c4c3C2=O)NC(=O)/C(C)=C\C=C\[C@H](C)[C@H](O)[C@@H](C)[C@@H](O)[C@@H](C)[C@H](OC(C)=O)[C@@H]1C [RIFAPENTINE] | Not Active | Not Active | Not Active | Not Active | Not Active | – | – | Not Active | Not Active | Not Active | – | – | – | – |
| CCCCOc1cc(CC2CNC(=O)N2)ccc1OC (stereo unspecified) [RO-201724] | Not Active | Not Active | Not Active | Not Active | Not Active | – | – | Not Active | Not Active | Not Active | – | – | – | – |
| CC[C@@H](C(=O)[C@@H](C)[C@@H](O)[C@H](C)[C@@H]1O[C@@H]([C@@H](CC)C(=O)O)CC[C@@H]1C)[C@H]1O[C@]2(C=C[C@@H](O)[C@]3(CC[C@@](C)([C@H]4CC[C@](O)(CC)[C@H](C)O4)O3)O2)[C@H](C)C[C@@H]1C [SALINOMYCIN] | Not Active | Not Active | Not Active | Not Active | Not Active | – | – | Not Active | Not Active | Not Active | – | – | – | – |
| O=C(Oc1ccccc1C(=O)O)c1ccccc1O [SALSALATE] | Not Active | Not Active | Not Active | Not Active | Not Active | – | – | Not Active | Not Active | Not Active | – | – | – | – |
| O=C(O)c1cn(-c2ccc(F)cc2)c2cc(N3CCNCC3)c(F)cc2c1=O [SARAFLOXACIN] | Not Active | Not Active | Not Active | Not Active | Not Active | – | – | Not Active | Not Active | Not Active | – | – | – | – |
| CN[C@H]1CC[C@@H](c2ccc(Cl)c(Cl)c2)c2ccccc21 [SERTRALINE] | Not Active | – | – | Not Active | – | – | – | – | – | Not Active | – | – | 2630 nM | 367 nM |
| CC(C)NCC(O)c1ccc(NS(C)(=O)=O)cc1 (stereo unspecified) [SOTALOL] | Not Active | Not Active | Not Active | Not Active | Not Active | – | – | Not Active | Not Active | Not Active | – | – | – | – |
| O.O.O.O.O.O.[Cl-].[Cl-].[Sr+2] [STRONTIUM CHLORIDE HEXAHYDRATE] | Not Active | Not Active | Not Active | Not Active | Not Active | – | – | Not Active | Not Active | Not Active | – | – | – | – |
| O=C1C(CC[S+]([O-])c2ccccc2)C(=O)N(c2ccccc2)N1c1ccccc1 (stereo unspecified) [SULFINPYRAZONE] | Not Active | Not Active | Not Active | Not Active | Not Active | – | – | Not Active | Not Active | Not Active | – | – | – | – |
| NC(=O)N1C(=O)/C(=C(\O)c2cccs2)c2cc(Cl)ccc21 [TENIDAP] | Not Active | Not Active | Not Active | Not Active | Not Active | – | – | Not Active | Not Active | Not Active | – | – | – | – |
| COc1cc2nc(N3CCN(C(=O)C4CCCO4)CC3)nc(N)c2cc1OC (stereo unspecified) [TERAZOSIN] | Not Active | Not Active | Not Active | Not Active | Not Active | – | – | Not Active | Not Active | Not Active | – | – | – | – |

From ChEMBL document CHEMBL1909046, “DrugMatrix in vitro pharmacology data”
